In the assay the target is Factor D (Homo sapiens (Human), UniProt P00746). The assay is described as follows: biochemical. The settings on record: read-out: IC50. The assay is classed as biochemical.

Molecules are shown by their SMILES.

IC50 data for 27 compounds are collected here from patent US9085555B2, “Complement pathway modulators and uses thereof” (priority 2011, dated 2015).

The term IC50 denotes the concentration that inhibits the measured activity by half.

Factor D, sequence (P00746 26-253): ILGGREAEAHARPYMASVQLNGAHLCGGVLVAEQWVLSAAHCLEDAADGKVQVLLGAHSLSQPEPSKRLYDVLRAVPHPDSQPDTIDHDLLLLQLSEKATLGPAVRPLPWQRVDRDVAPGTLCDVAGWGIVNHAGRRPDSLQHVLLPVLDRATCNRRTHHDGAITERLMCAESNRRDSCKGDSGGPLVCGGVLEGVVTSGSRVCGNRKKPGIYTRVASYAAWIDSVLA

As to `COC(=O)[C@H]1C[C@@H](C(=O)Nc2cccc(OC(F)(F)F)c2F)N(C(=O)Nc2cn(C(N)=O)c3ccccc23)C1` [Example 435, (3S,5S)-1-(1-Carbamoyl-1H-indol-3-ylcarbamoyl)-5-(2-fluoro-3-trifluoromethoxy-phenylcarbamoyl)-pyrrolidine-3-carboxylic acid methyl ester], the 50% inhibitory concentration (IC50) turned out to be 250 nM.

Consider `NC(=O)n1cc(NC(=O)N2C[C@@H](CO)C[C@H]2C(=O)NCc2c(F)ccc(Cl)c2F)c2ccccc21` [Example 436, 2S,4S)-4-Hydroxymethyl-pyrrolidine-1,2-dicarboxylic acid 1-[(1-carbamoyl-1H-indol-3-yl)-amide]2-(3-chloro-2,6-difluoro-benzylamide], for which the IC50 amounted to 150 nM.

As to `NC(=O)c1cc(Br)cc(NC(=O)[C@@H]2C[C@@H](F)CN2C(=O)Nc2cn(C(N)=O)c3ccccc23)c1` [Example 437, (2S,4R)-4-Fluoro-pyrrolidine-1,2-dicarboxylic acid 2-[(3-bromo-5-carbamoyl-phenyl)-amide]1-[(1-carbamoyl-1H-indol-3-yl)-amide]], the 50% inhibitory concentration (IC50) worked out at 107 nM.

As to `COCCNC(=O)c1cc(Cl)c(F)c(CNC(=O)[C@@H]2C[C@@H](F)CN2C(=O)Nc2cn(C(N)=O)c3ccccc23)c1` [Example 438, (2S,4R)-4-Fluoro-pyrrolidine-1,2-dicarboxylic acid 1-[(1-carbamoyl-1H-indol-3-yl)-amide]2-[3-chloro-2-fluoro-5-(2-methoxy-ethylcarbamoyl)-benzylamide]], the concentration for half-maximal inhibition (IC50) is 924 nM.

`CC(C)c1cc(NC(=O)[C@@H]2CCCN2C(=O)Nc2cn(C(N)=O)c3ccccc23)on1` [Example 439, (S)-Pyrrolidine-1,2-dicarboxylic acid 1-[(1-carbamoyl-1H-indol-3-yl)-amide]2-[(3-isopropyl-isoxazol-5-yl)-amide]]: the IC50 worked out at 1250 nM.

Regarding `NC(=O)n1cc(NC(=O)N2CCC[C@H]2C(=O)Nc2cc(-c3ccccc3)no2)c2ccccc21` [Example 440, (S)-Pyrrolidine-1,2-dicarboxylic acid 1-[(1-carbamoyl-1H-indol-3-yl)-amide]2-[(3-phenyl-isoxazol-5-yl)-amide]], the IC50 was determined as 1050 nM.

With `NC(=O)n1cc(CC(=O)N2CCC[C@H]2C(=O)Nc2cccc(OC(F)(F)F)c2)c2ccccc21` [Example 441, 3-{2-[(S)-2-(3-trifluoromethoxy-phenylcarbamoyl)-pyrrolidin-1-yl]-2-oxo-ethyl}-indole-1-carboxylic acid amide], the IC50 is 5620 nM.

As for `NC(=O)n1cc(CC(=O)N2C[C@H](F)C[C@H]2C(=O)Nc2cccc(OC(F)(F)F)c2F)c2ccccc21` [Example 442, 3-{2-[(2S,4R)-4-Fluoro-2-(2-fluoro-3-trifluoromethoxy-phenylcarbamoyl)-pyrrolidin-1-yl]-2-oxo-ethyl}-indole-1-carboxylic acid amide], the IC50 turned out to be 850 nM.

`NC(=O)n1cc(CC(=O)N2C[C@@H]3C[C@@H]3[C@H]2C(=O)N[C@H](CO)c2cccc(Cl)c2F)c2ccccc21` [Example 443, 3-(2-{(1S,2S,5R)-2-[(S)-1-(3-Chloro-2-fluoro-phenyl)-2-hydroxy-ethylcarbamoyl]-3-azabicyclo[3.1.0]hex-3-yl}-2-oxo-ethyl)-indole-1-carboxylic acid amide]: the IC50 turned out to be 4470 nM.

As to `NC(=O)n1cc(CC(=O)N2CC[C@@H](O)[C@H]2C(=O)NCc2cccc(Cl)c2F)c2ccccc21` [Example 444, 3-{2-[(2S,3R)-2-(3-Chloro-2-fluoro-benzylcarbamoyl)-3-hydroxy-pyrrolidin-1-yl]-2-oxo-ethyl}-indole-1-carboxylic acid amide], the IC50 is 243 nM.

For the compound `CN(C)C[C@@]1(F)C[C@@H](C(=O)NCc2cccc(Cl)c2F)N(C(=O)Cc2cn(C(N)=O)c3ccccc23)C1` [Example 445, 3-{2-[(2S,4S)-2-(3-Chloro-2-fluoro-benzylcarbamoyl)-4-dimethylaminomethyl-4-fluoro-pyrrolidin-1-yl]-2-oxo-ethyl}-indole-1-carboxylic acid amide], the half-inhibitory concentration (IC50) was 580 nM.

`NC(=O)n1cc(CC(=O)N2[C@@H]3C[C@@H]3C[C@H]2C(=O)NCc2cccc(Cl)c2F)c2ccccc21` [Example 446, 3-{2-[(1R,3S,5R)-3-(3-Chloro-2-fluoro-benzylcarbamoyl)-2-aza-bicyclo[3.1.0]hex-2-yl]-2-oxo-ethyl}-indole-1-carboxylic acid amide]: the IC50 turned out to be 16 nM.

Regarding `NC(=O)n1cc(CC(=O)N2C[C@H](F)C[C@H]2C(=O)NCc2cccc(Cl)c2F)c2ccccc21` [Example 448, 3-{2-[(2S,4R)-2-(3-Chloro-2-fluoro-benzylcarbamoyl)-4-fluoro-pyrrolidin-1-yl]-2-oxo-ethyl}-indole-1-carboxylic acid amide], the half-maximal inhibitory concentration (IC50) was 26 nM.

On to `NC(=O)n1cc(CC(=O)N2[C@@H]3C[C@@H]3C[C@H]2C(=O)N[C@H](CO)c2cccc(Cl)c2F)c2ccccc21` [Example 449, 3-(2-{(1R,3S,5R)-3-[(S)-1-(3-Chloro-2-fluoro-phenyl)-2-hydroxy-ethylcarbamoyl]-2-aza-bicyclo[3.1.0]hex-2-yl}-2-oxo-ethyl)-indole-1-carboxylic acid amide], for which the half-maximal inhibitory concentration (IC50) came to 51 nM.

Take `NC(=O)n1cc(CC(=O)N2CCS[C@H]2C(=O)NCc2cccc(Cl)c2F)c2ccccc21` [Example 450, 3-{2-[(S)-2-(3-Chloro-2-fluoro-benzylcarbamoyl)-thiazolidin-3-yl]-2-oxo-ethyl}-indole-1-carboxylic acid amide]: the IC50 is 25 nM.

For `NC(=O)n1cc(CC(=O)N2C[C@@](F)(CO)C[C@H]2C(=O)NCc2cccc(Cl)c2F)c2ccccc21` [Example 451, 3-{2-[(2S,4R)-2-(3-Chloro-2-fluoro-benzylcarbamoyl)-4-fluoro-4-hydroxymethyl-pyrrolidin-1-yl]-2-oxo-ethyl}-indole-1-carboxylic acid amide], the IC50 turned out to be 90 nM.

Regarding `COc1ccc2c(c1)c(CC(=O)N1C3CC3C[C@H]1C(=O)NCc1cccc(Cl)c1F)cn2C(N)=O` (stereo partly drawn) [Example 452, 3-{2-[(1R,3S,5R)-3-(3-Chloro-2-fluoro-benzylcarbamoyl)-2-aza-bicylo[3.1.0]hex-2-yl]-2-oxo-ethyl}-5-methoxy-indole-1-carboxylic acid amide], the IC50 was 15 nM.

On to `NC(=O)n1cc(CC(=O)N2[C@@H]3C[C@@H]3C[C@H]2C(=O)NCc2cccc(Cl)c2F)c2cc(OCCO)ccc21` [Example 453, 3-{2-[(1R,3S,5R)-3-(3-Chloro-2-fluoro-benzylcarbamoyl)-2-aza-bicyclo[3.1.0]hex-2-yl]-2-oxo-ethyl}-5-(2-hydroxy-ethoxy)-indole-1-carboxylic acid amide], for which the IC50 was 13 nM.

`COC[C@@]12C[C@@H](C(=O)NCc3cccc(Cl)c3F)N(C(=O)Cc3cn(C(N)=O)c4ccccc34)[C@@H]1C2` [Example 454, 3-{2-[(1R,3S,5S)-3-(3-Chloro-2-fluoro-benzylcarbamoyl)-5-methoxymethyl-2-aza-bicyclo[3.1.0]hex-2-yl]-2-oxo-ethyl}-indole-1-carboxylic acid amide]: the IC50 turned out to be 103 nM.

As for `NC(=O)n1cc(CC(=O)N2[C@@H]3C[C@@H]3C[C@H]2C(=O)Nc2cccc(OC(F)(F)F)c2)c2cc(OCCO)ccc21` [Example 455, 5-(2-Hydroxy-ethoxy)-3-{2-oxo-2-[(1R,3S,5R)-3-(3-trifluoromethoxy-phenylcarbamoyl)-2-aza-bicyclo[3.1.0]hex-2-yl]-ethyl}-indole-1-carboxylic acid amide], the IC50 worked out at 767 nM.

On to `NC(=O)n1cc(CC(=O)N2[C@@H]3C[C@@H]3C[C@H]2C(=O)NCc2ccc(Cl)s2)c2ccccc21` [Example 456, 3-(2-{(1R,3S,5R)-3-[(5-Chloro-thiophen-2-ylmethyl)-carbamoyl]-2-aza-bicyclo[3.1.0]hex-2-yl}-2-oxo-ethyl)-indole-1-carboxylic acid amide], for which the half-inhibitory concentration (IC50) worked out at 85 nM.

`NC(=O)n1cc(CC(=O)N2[C@@H]3C[C@@H]3C[C@H]2C(=O)N[C@H](CCO)c2cccc(Cl)c2F)c2ccccc21` [Example 457, 3-(2-{(1R,3S,5R)-3-[(R)-1-(3-Chloro-2-fluoro-phenyl)-3-hydroxy-propylcarbamoyl]-2-azabicyclo[3.1.0]hex-2-yl}-2-oxo-ethyl)-indole-1-carboxylic acid amide]: the IC50 was determined as 107 nM.

In the case of `CN(C)C[C@@H](NC(=O)[C@@H]1C[C@H]2C[C@H]2N1C(=O)Cc1cn(C(N)=O)c2ccccc12)c1cccc(Cl)c1F` [Example 458, 3-(2-{(1R,3S,5R)-3-[(S)-1-(3-Chloro-2-fluoro-phenyl)-2-dimethylamino-ethylcarbamoyl]-2-aza-bicyclo[3.1.0]hex-2-yl}-2-oxo-ethyl)-indole-1-carboxylic acid amide], the 50% inhibitory concentration (IC50) came out at 169 nM.

As for `C[C@@]1(F)C[C@@H](C(=O)NCc2cccc(Cl)c2F)N(C(=O)Cc2cn(C(N)=O)c3ccc(OCCO)cc23)C1` [Example 459, 3-{2-[(2S,4R)-2-(3-Chloro-2-fluoro-benzylcarbamoyl)-4-fluoro-4-methyl-pyrrolidin-1-yl]-2-oxo-ethyl)-5-(2-hydroxy-ethoxy)-indole-1-carboxylic acid amide], the IC50 is 211 nM.

As to `NC(=O)n1cc(CC(=O)N2C[C@H](F)C[C@H]2C(=O)NCc2cccc(Cl)c2F)c2cc(F)ccc21` [Example 460, 3-{2-[(2S,4R)-2-(3-Chloro-2-fluoro-benzylcarbamoyl)-4-fluoro-pyrrolidin-1-yl]-2-oxo-ethyl}-5-fluoro-indole-1-carboxylic acid amide], the IC50 was determined as 20 nM.

For the compound `NC(=O)n1cc(CC(=O)N2CCS[C@H]2C(=O)NCc2cccc(Cl)c2F)c2cc(OCCO)ccc21` [Example 462, 3-{2-[(S)-2-(3-Chloro-2-fluoro-benzylcarbamoyl)-thiazolidin-3-yl]-2-oxo-ethyl}-5-(2-hydroxy-ethoxy)-indole-1-carboxylic acid amide], the IC50 is 75 nM.

On to `NC(=O)n1cc(CC(=O)N2C[C@H]3C[C@H]3[C@H]2C(=O)N[C@H](CO)c2cccc(Cl)c2F)c2ccccc21` [Example 463, 3-(2-{(1R,2S,5S)-2-[(S)-1-(3-Chloro-2-fluoro-phenyl)-2-hydroxy-ethylcarbamoyl]-3-azabicyclo[3.1.0]hex-3-yl}-2-oxo-ethyl)-indole-1-carboxylic acid amide], for which the IC50 is 3110 nM.
